In ChEMBL document CHEMBL1201862, “PubChem BioAssay data set” (2004) one finds IC50, EC50 and AC50 data, which are given here for 3 compounds.

The target of one assay is SUMO E1/E2 (Homo sapiens, UniProt P63279+Q9UBE0+Q9UBT2). Description: SAR analysis of SUMOylation using HTRF in an in-Vitro dose response assay. [Related pubchem assays (depositor defined):AID2006, AID2011, AID2018, AID2069, AID2658]. It is filed as functional.
Assay [1] deals with T1, Mu-type opioid receptor (Homo sapiens, UniProt P35372). The assay is described as follows: SAR Analysis of Agonists of the MOR Receptor using an Image-Based Assay - Set 2. [Related pubchem assays (depositor defined):AID1777, AID1785, AID1786, AID1966, AID2133, AID2136, AID2284, AID2285, AID2352]. It is filed as functional.
T1 sequence (P35372 whole entry): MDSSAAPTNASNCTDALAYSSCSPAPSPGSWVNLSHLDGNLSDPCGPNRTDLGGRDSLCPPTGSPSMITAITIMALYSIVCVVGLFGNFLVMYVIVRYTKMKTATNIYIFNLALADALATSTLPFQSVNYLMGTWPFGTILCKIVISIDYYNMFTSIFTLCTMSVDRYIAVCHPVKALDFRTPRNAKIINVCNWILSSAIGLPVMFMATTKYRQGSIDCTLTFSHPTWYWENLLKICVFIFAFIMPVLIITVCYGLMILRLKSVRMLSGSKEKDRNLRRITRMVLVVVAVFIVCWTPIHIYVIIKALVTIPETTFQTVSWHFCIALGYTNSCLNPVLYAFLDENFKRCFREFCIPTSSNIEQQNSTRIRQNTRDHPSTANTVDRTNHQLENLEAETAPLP
For assay [2], the target named is T2, Delta-type opioid receptor (Homo sapiens, UniProt P41143). The assay is described as follows: SAR Analysis of Antagonists of the DOR Receptor using an Image-Based Assay - Set 2. [Related pubchem assays (depositor defined):AID1777, AID1785, AID1786, AID1966, AID2133, AID2136, AID2284, AID2285, AID2357]. It is filed as functional.
T2 sequence (P41143 whole entry): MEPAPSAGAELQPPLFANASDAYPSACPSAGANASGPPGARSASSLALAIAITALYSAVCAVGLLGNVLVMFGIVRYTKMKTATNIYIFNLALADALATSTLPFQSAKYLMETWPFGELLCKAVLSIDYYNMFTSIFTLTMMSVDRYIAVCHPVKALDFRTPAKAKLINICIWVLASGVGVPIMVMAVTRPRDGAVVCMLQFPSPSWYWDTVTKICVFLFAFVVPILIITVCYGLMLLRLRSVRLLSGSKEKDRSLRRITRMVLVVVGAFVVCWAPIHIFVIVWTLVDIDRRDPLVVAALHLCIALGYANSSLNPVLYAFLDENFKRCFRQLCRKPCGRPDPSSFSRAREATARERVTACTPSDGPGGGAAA
For assay [3], the target named is T3, Kappa-type opioid receptor (Homo sapiens, UniProt P41145). The assay is described as follows: SAR analysis of Agonists of the Kappa Opioid Receptor (KOR) using an Image-Based Assay - Set 2. [Related pubchem assays (depositor defined):AID1777, AID1786, AID1966, AID2133, AID2136, AID2284, AID2285, AID2359]. The assay is classed as functional.
T3 sequence (P41145 whole entry): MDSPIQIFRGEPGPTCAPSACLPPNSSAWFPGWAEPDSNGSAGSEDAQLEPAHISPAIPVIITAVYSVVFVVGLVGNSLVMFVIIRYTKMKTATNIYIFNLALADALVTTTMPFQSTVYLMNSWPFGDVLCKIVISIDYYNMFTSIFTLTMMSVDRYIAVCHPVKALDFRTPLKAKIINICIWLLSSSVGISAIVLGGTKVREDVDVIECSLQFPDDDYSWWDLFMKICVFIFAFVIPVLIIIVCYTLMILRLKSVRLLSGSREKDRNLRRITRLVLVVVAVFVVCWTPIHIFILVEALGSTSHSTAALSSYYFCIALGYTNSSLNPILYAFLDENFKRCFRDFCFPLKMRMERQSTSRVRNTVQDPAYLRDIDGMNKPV
In assay [4] the target is T1, Mu-type opioid receptor. Description: SAR Analysis of Antagonists of the MOR Receptor using an Image-Based Assay - Set 2. [Related pubchem assays (depositor defined):AID1777, AID1785, AID1786, AID1966, AID2133, AID2136, AID2284, AID2285, AID2420]. The assay is classed as functional.
In assay [5] the target is T3, Kappa-type opioid receptor. Description: SAR analysis of small molecule agonists of the kappa opioid receptor via a luminescent beta-arrestin assay - Set 2. [Related pubchem assays (depositor defined):AID1777, AID1785, AID1786, AID1966, AID2133, AID2136, AID2284, AID449737]. The assay is classed as functional.
The target of assay [6] is T3, Kappa-type opioid receptor. Description: SAR analysis of Antagonists of the Kappa Opioid Receptor (KOR) using an Image-Based Assay - Set 2. [Related pubchem assays (depositor defined):AID1777, AID1785, AID1786, AID1966, AID2133, AID2136, AID2284, AID2285, AID2348]. It is filed as functional.
Assay [7] has as its target T2, Delta-type opioid receptor. The assay is described as follows: SAR Analysis of Agonists of the DOR Receptor using an Image-Based Assay - Set 2. [Related pubchem assays (depositor defined):AID1777, AID1785, AID1786, AID1966, AID2133, AID2136, AID2284, AID2285, AID2370]. The assay is classed as functional.
Another assay relates to Candida albicans. Description: C. albicans growth inhibition with fluconazole – CaCi-2 strain, Alamar Blue, dry powder, set 4, dose response (AID 488943). It is filed as functional, organism-based.

The source made the active and inactive calls. Unless noted, no cut-off for these calls is given here.

Chain of SUMO E1/E2 (Q9UBE0 whole entry): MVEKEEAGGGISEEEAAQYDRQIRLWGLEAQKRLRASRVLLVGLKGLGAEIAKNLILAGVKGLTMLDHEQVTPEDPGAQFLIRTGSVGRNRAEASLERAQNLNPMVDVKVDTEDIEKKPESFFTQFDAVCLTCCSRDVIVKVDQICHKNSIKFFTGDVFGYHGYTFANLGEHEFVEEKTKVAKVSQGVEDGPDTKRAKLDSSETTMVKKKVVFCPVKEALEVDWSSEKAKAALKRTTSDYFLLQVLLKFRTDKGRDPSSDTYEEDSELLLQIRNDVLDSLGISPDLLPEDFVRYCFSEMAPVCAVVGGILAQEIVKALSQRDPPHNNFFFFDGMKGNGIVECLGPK
Chain of SUMO E1/E2 (Q9UBT2 whole entry): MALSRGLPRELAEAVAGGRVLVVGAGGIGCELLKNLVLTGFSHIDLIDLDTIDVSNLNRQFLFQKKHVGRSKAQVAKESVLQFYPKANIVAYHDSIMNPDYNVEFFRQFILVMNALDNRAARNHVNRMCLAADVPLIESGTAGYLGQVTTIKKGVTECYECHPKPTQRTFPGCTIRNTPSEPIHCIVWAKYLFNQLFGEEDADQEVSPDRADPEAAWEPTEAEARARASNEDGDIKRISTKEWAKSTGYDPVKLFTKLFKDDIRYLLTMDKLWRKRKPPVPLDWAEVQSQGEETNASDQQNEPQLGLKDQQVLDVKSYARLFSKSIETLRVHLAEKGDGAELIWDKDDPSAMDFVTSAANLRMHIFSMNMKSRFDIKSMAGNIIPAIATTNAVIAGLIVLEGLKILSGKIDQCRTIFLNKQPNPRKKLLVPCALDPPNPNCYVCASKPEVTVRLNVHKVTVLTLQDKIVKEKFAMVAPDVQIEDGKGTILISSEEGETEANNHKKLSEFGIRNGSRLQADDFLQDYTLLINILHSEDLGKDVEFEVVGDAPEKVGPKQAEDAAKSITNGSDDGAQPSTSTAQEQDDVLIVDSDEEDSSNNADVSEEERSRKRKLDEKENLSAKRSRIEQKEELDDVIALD
Chain of SUMO E1/E2 (P63279 whole entry): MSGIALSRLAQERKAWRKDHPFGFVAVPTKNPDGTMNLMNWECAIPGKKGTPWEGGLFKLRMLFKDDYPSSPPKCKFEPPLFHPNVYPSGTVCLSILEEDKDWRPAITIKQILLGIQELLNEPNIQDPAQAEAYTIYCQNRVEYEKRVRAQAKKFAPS

Usually IC50 stands for the midpoint of a concentration-inhibition curve. In the case of `S=c1[nH]nc(-c2cc(-c3ccccc3)[nH]n2)n1N=Cc1ccc(Br)s1`, the IC50 at SUMO E1/E2 is 11.3 µM (active).
As usually defined, the EC50 is the concentration giving half of the maximal effect. In the case of `COc1ccc(CSc2nnc(-c3ccccn3)n2Cc2cccs2)cc1`, the EC50 on Mu-type opioid receptor [1] was > 32 µM (inactive); in [3], 5.98 µM (active); in assay [5], 9.61 µM (active); in assay [7] it was > 32 µM (inactive). Besides, the IC50 (in assay [2]; on Mu-type opioid receptor [4]; in [6]) was > 32 µM (inactive) in each case.
For orientation: AC50 means the concentration giving half of the maximal activity seen. Take `Clc1ccc2c(N3CCNCC3)ccnc2c1`: the AC50 with Candida albicans is 21.7 µM (active).
